Reference: PubChem BioAssay (NCI)
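A five-concentration, 48-hour dose response in 96-well plates underlies each endpoint, interpolated linearly between surrounding concentrations. GI50 = concentration required for 50% inhibition of growth. TGI: concentration producing complete growth inhibition.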

Key:
Assay in all cases: NCI tumour cell line growth inhibition, 48 h
EKVX NSCLC = system: EKVX NSCLC
UACC-62 melanoma = system: UACC-62 melanoma
T-47D breast = system: T-47D breast
786-0 renal = system: 786-0 renal
SK-MEL-2 melanoma = system: SK-MEL-2 melanoma
NCI/ADR-RES ovarian = system: NCI/ADR-RES ovarian
SNB-75 CNS = system: SNB-75 CNS
SR leukemia = system: SR leukemia
NCI-H226 lung = system: NCI-H226 lung
RXF 393 renal = system: RXF 393 renal
MDA-MB-231 breast = system: MDA-MB-231 breast

## O=C(NNC(=O)c1ccco1)c1ccco1
EKVX NSCLC
  TGI: > 100 µM
UACC-62 melanoma
  TGI: > 100 µM
T-47D breast
  TGI: > 100 µM
786-0 renal
  TGI: > 100 µM
SK-MEL-2 melanoma
  TGI: > 100 µM
NCI/ADR-RES ovarian
  TGI: > 100 µM
SNB-75 CNS
  TGI: > 100 µM
SR leukemia
  TGI: > 100 µM
NCI-H226 lung
  TGI: > 100 µM
RXF 393 renal
  TGI: > 100 µM
MDA-MB-231 breast
  TGI: > 100 µM

## S=C(NCc1ccccn1)N/N=C/c1ccccn1
EKVX NSCLC
  TGI: 2.44 µM
UACC-62 melanoma
  TGI: 4.12 µM
T-47D breast
  TGI: > 61.5 µM
786-0 renal
  TGI: > 86.1 µM
SK-MEL-2 melanoma
  TGI: 0.876 µM
NCI/ADR-RES ovarian
  TGI: > 100 µM
SNB-75 CNS
  TGI: > 100 µM
SR leukemia
  TGI: 0.0113 µM
NCI-H226 lung
  TGI: 0.163 µM
RXF 393 renal
  TGI: 4.52 µM

## Cc1ccc(C(=O)N/N=C(\N=Nc2ccc([N+](=O)[O-])cc2)c2ccc(N(CCC#N)CCC#N)cc2C)cc1
EKVX NSCLC
  TGI: > 100 µM
T-47D breast
  TGI: 83.4 µM
786-0 renal
  TGI: > 100 µM
SK-MEL-2 melanoma
  TGI: > 100 µM
NCI/ADR-RES ovarian
  TGI: > 100 µM
SNB-75 CNS
  TGI: > 100 µM
SR leukemia
  TGI: > 100 µM
NCI-H226 lung
  TGI: > 100 µM
RXF 393 renal
  TGI: 50.9 µM
MDA-MB-231 breast
  TGI: > 100 µM

## Cc1ccc(/C=c2\cc3oc(=O)c4cccc(c4-3)c2=O)cc1
EKVX NSCLC
  TGI: > 100 µM
UACC-62 melanoma
  TGI: > 100 µM
T-47D breast
  TGI: > 100 µM
786-0 renal
  TGI: > 100 µM
SK-MEL-2 melanoma
  TGI: > 100 µM
NCI/ADR-RES ovarian
  TGI: > 100 µM
SNB-75 CNS
  TGI: > 100 µM
SR leukemia
  TGI: > 100 µM
MDA-MB-231 breast
  TGI: > 100 µM

## C=CCOCC1C2CCC3(OCCO3)C21 (stereo unspecified)
EKVX NSCLC
  TGI: > 100 µM
UACC-62 melanoma
  TGI: > 100 µM
786-0 renal
  TGI: > 100 µM
SK-MEL-2 melanoma
  TGI: > 100 µM
NCI/ADR-RES ovarian
  TGI: > 100 µM
SNB-75 CNS
  TGI: > 100 µM
SR leukemia
  TGI: > 100 µM
NCI-H226 lung
  TGI: > 100 µM
RXF 393 renal
  TGI: > 100 µM
MDA-MB-231 breast
  TGI: > 100 µM

## O=C(/C=C/c1ccc(OCc2ccccc2)cc1)NCc1ccc(C(=O)NCCc2ccccc2)cc1
EKVX NSCLC
  TGI: > 100 µM
UACC-62 melanoma
  TGI: > 100 µM
T-47D breast
  TGI: > 100 µM
786-0 renal
  TGI: > 100 µM
SK-MEL-2 melanoma
  TGI: > 100 µM
NCI/ADR-RES ovarian
  TGI: > 100 µM
SNB-75 CNS
  TGI: > 100 µM
NCI-H226 lung
  TGI: > 100 µM
RXF 393 renal
  TGI: > 100 µM
MDA-MB-231 breast
  TGI: > 100 µM

## CCOC(=O)C(O)(CC1=NC(C(=O)OC)(C(=O)OC)C(c2cccc(C=O)c2)O1)C(=O)OCC (stereo unspecified)
EKVX NSCLC
  TGI: > 100 µM
UACC-62 melanoma
  TGI: > 100 µM
T-47D breast
  TGI: > 100 µM
786-0 renal
  TGI: > 100 µM
SK-MEL-2 melanoma
  TGI: > 100 µM
NCI/ADR-RES ovarian
  TGI: > 100 µM
SNB-75 CNS
  TGI: > 100 µM
SR leukemia
  TGI: > 100 µM
NCI-H226 lung
  TGI: > 100 µM
RXF 393 renal
  TGI: > 100 µM

## CC(C)(C)OC(=O)Cn1ncn(NC(=O)Cc2ccccc2)c1=S
EKVX NSCLC
  TGI: > 10 µM
UACC-62 melanoma
  TGI: > 10 µM
T-47D breast
  TGI: > 10 µM
786-0 renal
  TGI: > 10 µM
NCI/ADR-RES ovarian
  TGI: > 10 µM
SNB-75 CNS
  TGI: > 10 µM
SR leukemia
  TGI: > 10 µM
MDA-MB-231 breast
  TGI: > 10 µM

## O=C1Cc2cc3ccccc3nc2-c2ccccc2N1
EKVX NSCLC
  TGI: > 100 µM
UACC-62 melanoma
  TGI: > 100 µM
T-47D breast
  TGI: > 100 µM
786-0 renal
  TGI: > 100 µM
SK-MEL-2 melanoma
  TGI: > 100 µM
NCI/ADR-RES ovarian
  TGI: > 100 µM
SNB-75 CNS
  TGI: 65.7 µM
NCI-H226 lung
  TGI: > 100 µM
RXF 393 renal
  TGI: > 100 µM
MDA-MB-231 breast
  TGI: > 100 µM

## OC12CCC3(OC4CCCCO4)c4ccccc4C3C1c1ccccc12 (stereo unspecified)
EKVX NSCLC
  TGI: > 100 µM
UACC-62 melanoma
  TGI: > 100 µM
786-0 renal
  TGI: > 100 µM
SK-MEL-2 melanoma
  TGI: > 100 µM
SNB-75 CNS
  TGI: > 100 µM
SR leukemia
  TGI: > 100 µM
NCI-H226 lung
  TGI: > 100 µM
RXF 393 renal
  TGI: > 100 µM

## Oc1c(Br)cc2c(c1Br)-c1c(c(O)c3c4c1=NCCC=4C=N3)NCC2
EKVX NSCLC
  TGI: 46.1 µM
UACC-62 melanoma
  TGI: 11.4 µM
SK-MEL-2 melanoma
  TGI: 26.4 µM
NCI/ADR-RES ovarian
  TGI: 34.3 µM
SNB-75 CNS
  TGI: 34.5 µM
NCI-H226 lung
  TGI: 32.8 µM
RXF 393 renal
  TGI: 28.7 µM

## COC1OC2COC(=O)c3cc(O)c(O)c(O)c3-c3c(cc(O)c(O)c3O)C(=O)OC2C(O)C1O (stereo unspecified)
EKVX NSCLC
  TGI: > 100 µM
UACC-62 melanoma
  TGI: 47.1 µM
786-0 renal
  TGI: > 100 µM
SK-MEL-2 melanoma
  TGI: > 100 µM
NCI/ADR-RES ovarian
  TGI: > 100 µM
SNB-75 CNS
  TGI: > 100 µM
NCI-H226 lung
  TGI: > 100 µM
RXF 393 renal
  TGI: > 100 µM
MDA-MB-231 breast
  TGI: > 100 µM

## C[C@]12CC[C@H]3[C@@H](CC=C4C[C@@H](O)CC[C@@]43C)[C@@H]1C/C(=C\c1cccnc1)[C@@H]2O
EKVX NSCLC
  TGI: 35.8 µM
UACC-62 melanoma
  TGI: 39.8 µM
786-0 renal
  TGI: 96 µM
SK-MEL-2 melanoma
  TGI: > 100 µM
NCI/ADR-RES ovarian
  TGI: > 100 µM
SR leukemia
  TGI: > 100 µM
NCI-H226 lung
  TGI: 57.4 µM
RXF 393 renal
  TGI: 80.2 µM
MDA-MB-231 breast
  TGI: 57.8 µM

## Brc1ccc2[nH]c3c(C4=NCCC4)nccc3c2c1
EKVX NSCLC
  TGI: 57.3 µM
UACC-62 melanoma
  TGI: 30.5 µM
SK-MEL-2 melanoma
  TGI: > 53.3 µM
NCI/ADR-RES ovarian
  TGI: > 100 µM
SNB-75 CNS
  TGI: > 82 µM
NCI-H226 lung
  TGI: 26.4 µM
RXF 393 renal
  TGI: 71.2 µM

## [CH3][Sn]([CH3])([CH3])[S]C(=S)N1CCOCC1
EKVX NSCLC
  GI50: 4.96 µM
  TGI: > 100 µM
UACC-62 melanoma
  GI50: 0.553 µM
SK-MEL-2 melanoma
  GI50: 1.51 µM
  TGI: 4.75 µM
NCI/ADR-RES ovarian
  GI50: 1.82 µM
  TGI: 11.2 µM
SNB-75 CNS
  GI50: 3.34 µM
  TGI: > 31.4 µM
NCI-H226 lung
  GI50: 2.72 µM
  TGI: 17 µM
RXF 393 renal
  GI50: 0.7 µM

## CCOP1(=O)CC(C)=C(Cl)C(OC)C1 (stereo unspecified)
EKVX NSCLC
  TGI: > 100 µM
UACC-62 melanoma
  TGI: > 100 µM
786-0 renal
  TGI: > 100 µM
SK-MEL-2 melanoma
  TGI: > 100 µM
NCI/ADR-RES ovarian
  TGI: > 100 µM
SNB-75 CNS
  TGI: > 100 µM
SR leukemia
  TGI: > 100 µM
NCI-H226 lung
  TGI: > 100 µM
RXF 393 renal
  TGI: > 100 µM
MDA-MB-231 breast
  TGI: > 100 µM

## C/C(=C\C(=O)Nc1ccc2n[nH]nc2c1)Nc1ccc2n[nH]nc2c1
EKVX NSCLC
  TGI: > 100 µM
UACC-62 melanoma
  TGI: > 100 µM
786-0 renal
  TGI: > 100 µM
SNB-75 CNS
  TGI: > 100 µM
SR leukemia
  TGI: > 100 µM
NCI-H226 lung
  TGI: > 100 µM
RXF 393 renal
  TGI: > 100 µM

## CCOC(=O)C1=C(O)CC(=O)N=C1N1CCCC1
EKVX NSCLC
  TGI: > 100 µM
UACC-62 melanoma
  TGI: > 100 µM
T-47D breast
  TGI: > 100 µM
786-0 renal
  TGI: > 100 µM
SK-MEL-2 melanoma
  TGI: > 100 µM
NCI/ADR-RES ovarian
  TGI: > 100 µM
SR leukemia
  TGI: > 100 µM
NCI-H226 lung
  TGI: > 100 µM
RXF 393 renal
  TGI: > 100 µM
MDA-MB-231 breast
  TGI: > 100 µM

## ClC1=NSSC1(Cl)Cl
EKVX NSCLC
  TGI: > 100 µM
UACC-62 melanoma
  TGI: > 100 µM
786-0 renal
  TGI: 59.3 µM
SK-MEL-2 melanoma
  TGI: > 100 µM
NCI/ADR-RES ovarian
  TGI: > 100 µM
SNB-75 CNS
  TGI: > 100 µM
SR leukemia
  TGI: 60.2 µM
NCI-H226 lung
  TGI: > 100 µM
RXF 393 renal
  TGI: > 100 µM
MDA-MB-231 breast
  TGI: 71.2 µM

## COC(=O)c1ccccc1CC1Cc2c(C)ccc(C)c2C1=O (stereo unspecified)
EKVX NSCLC
  TGI: > 100 µM
UACC-62 melanoma
  TGI: > 100 µM
T-47D breast
  TGI: 87.2 µM
786-0 renal
  TGI: > 100 µM
SK-MEL-2 melanoma
  TGI: 38.4 µM
NCI/ADR-RES ovarian
  TGI: 70.9 µM
SNB-75 CNS
  TGI: > 100 µM
NCI-H226 lung
  TGI: > 100 µM
RXF 393 renal
  TGI: 51 µM
MDA-MB-231 breast
  TGI: > 100 µM

## Nc1nc(Cl)c2ncn(CCCC(c3ccccc3)P(=O)(O)O)c2n1 (stereo unspecified)
UACC-62 melanoma
  TGI: > 100 µM
786-0 renal
  TGI: > 100 µM
SK-MEL-2 melanoma
  TGI: > 100 µM
SNB-75 CNS
  TGI: > 100 µM
SR leukemia
  TGI: > 100 µM

## Cc1cccc2c(=O)c3c(O)cc(O)cc3n(C)c12
EKVX NSCLC
  TGI: > 100 µM
UACC-62 melanoma
  TGI: > 100 µM
786-0 renal
  TGI: > 100 µM
SK-MEL-2 melanoma
  TGI: > 100 µM
NCI/ADR-RES ovarian
  TGI: > 100 µM
SNB-75 CNS
  TGI: > 100 µM
SR leukemia
  TGI: > 100 µM
NCI-H226 lung
  TGI: > 100 µM
RXF 393 renal
  TGI: > 100 µM
MDA-MB-231 breast
  TGI: > 100 µM

## COc1ccc(OC)c2c(C(C)=O)cccc12
EKVX NSCLC
  TGI: > 100 µM
UACC-62 melanoma
  TGI: > 100 µM
T-47D breast
  TGI: > 100 µM
786-0 renal
  TGI: > 100 µM
NCI/ADR-RES ovarian
  TGI: > 100 µM
SR leukemia
  TGI: > 100 µM
NCI-H226 lung
  TGI: > 100 µM
RXF 393 renal
  TGI: > 100 µM
MDA-MB-231 breast
  TGI: > 100 µM
